Measurements reported in US10251944B2, “Cancer vaccines” (Pfizer Inc., priority 2016, dated 2019).
Values joined by “and” are separate entries in the source; they are usually repeats but may differ in a detail not shown here. Equal values may be shown once.

Tested on: TUBO tumor cells
Assay: Subcutaneous TUBO tumor growth in BALB-neuT mice
Type: in vivo
Parameters: key to Subcutaneous tumor volumes: tumor volume in mm3
Details: for Subcutaneous tumor volumes: BALB-neuT mice, individual animals, with control vaccine and isotype control monoclonal antibody, listed as IDO1 inhibitor, in mm³
Description: BALB-neuT mice were implanted on study day 0 with TUBO tumor cells by subcutaneous injection. Mice were dosed with 200 mg/Kg of 3-(5-fluoro-1H-indol-3-yl)pyrrolidine-2,5-dione (IDO1 inhibitor) or vehicle twice daily from study day 7 using oral gavage. Comparator groups were sham dosed with vehicle from study day 7 onwards. Appropriated mice were immunized on study day 10 with 1e10 Viral Particles of an adenovirus vector engineered to express rat HER2 (rHER2) (rHER2 vaccine) or vector lacking the rHER2 transgene (control vaccine), by intramuscular injection. Subsequently, 250 ug of an anti-CTLA4 antibody (murine monoclonal antibody to CTLA-4, clone 9D9) or an IgG2 isotype control monoclonal antibody was injected subcutaneously in close proximity to lymph nodes draining the site of adenovirus vector injection. Every two weeks thereafter, mice were immunized with 100 ug of a DNA plasmid encoding rHER2 (rHER2 vaccine) or a DNA plasmid lacking the rHER2 transgene (control vaccine) by electroporation. Subsequent to the DNA plasmid administration, 250 ug of the anti-CTLA4 antibody was injected subcutaneously in close proximity to lymph nodes draining the site of DNA plasmid injection. To track tumor progression, subcutaneous tumor volumes were measured twice a week throughout the study. Animals with subcutaneous tumor volumes that reached 2000 mm3 or displaying irreversible signs of disease were euthanized.

O=C1CC(c2c[nH]c3ccc(F)cc23)C(=O)N1 (stereo not drawn) [001 inhibitor, 3-(5-fluoro-1H-indol-3-yl)pyrrolidine-2,5-dione]
tumor growth rates (subcutaneous tumor volumes), in words (BALB-neuT mice with TUBO tumors, IDO1 inhibitor 200 mg/Kg twice daily oral, anti-CTLA4 250 ug s.c., rHER2 adenovirus then DNA): No effect on tumor growth rates
Subcutaneous tumor volumes (Study Day 18): 87.17 and 43.33 and 77.07 and 67.44 and 136.82 and 73.84 and 62.25 and 84.25 and 115.90 and 47.77 and 40.28 and 81.38 and 130.43
Subcutaneous tumor volumes (Study Day 21): 91.03 and 64.93 and 113.76 and 113.10 and 163.91 and 75.81 and 78.22 and 89.04 and 182.85 and 58.23 and 54.88 and 135.90 and 127.97
Subcutaneous tumor volumes (Study Day 24): 161.46 and 92.35 and 169.45 and 127.09 and 198.49 and 100.08 and 101.79 and 140.26 and 284.27 and 88.35 and 55.22 and 110.30 and 155.81
Subcutaneous tumor volumes (Study Day 27): 163.11 and 110.42 and 171.37 and 129.44 and 240.05 and 125.82 and 123.19 and 186.49 and 361.01 and 112.48 and 80.13 and 147.33 and 241.15
Subcutaneous tumor volumes (Study Day 32): 252.04 and 173.28 and 301.94 and 202.21 and 337.79 and 251.57 and 194.14 and 275.98 and 541.91 and 153.38 and 110.90 and 184.76 and 321.37
Subcutaneous tumor volumes (Study Day 35): 324.53 and 260.28 and 306.58 and 377.96 and 401.70 and 262.56 and 246.60 and 364.82 and 598.92 and 209.97 and 141.15 and 244.33 and 521.30
Subcutaneous tumor volumes (Study Day 39): 414.72 and 343.13 and 512.15 and 430.30 and 596.09 and 434.13 and 389.39 and 471.60 and 671.98 and 338.06 and 192.15 and 328.32 and 572.30
Subcutaneous tumor volumes (Study Day 42): 603.00 and 408.33 and 574.86 and 574.25 and 680.54 and 551.64 and 463.99 and 601.50 and 820.44
